# “And” between values parts separate entries of the source, which are not always exact repeats. Identical values can stand only once. Like-named read-outs stand apart in the source and are kept apart here.
# Legend:
# [1] = tested on: motricité spontanée de la souris; test: Spontaneous motor activity; assay type: in vivo
# Source text: (§1) On a donc étudié les effets dépresseurs que peuvent exercer des doses croissantes de SCS 289 sur : • - la motricité spontanée de la souris; • - sa curiosité, quantifiée par la méthode de la planche à trous; • - son agilité, évaluée par l'épreuve de la traction de Boissier et Simon; • - sa force musculaire, mesurée par l'épreuve des poids.
# (§2) Les essais ont été pratiqués sur des groupes de 10 souris dont les performances motrices ont été mesurées à deux reprises : avant et une heure après traitement par le SCS 289 administré, par voie digestive à des doses allant de 10 à 200 mg/kg, actives vis-à-vis des convulsions pentétrazoliques et des crises psychomotrices. A noter que l'épreuve de la planche à trous utilisée pour chiffrer la curiosité des animaux (décompte du nombre de visites des trous) n'est pratiquée qu'une seule fois, le comportement explorateur des animaux traités étant alors comparé à celui des témoins.
# (§3) Les résultats obtenus dans chaque groupe ont permis de calculer la DA50 capable de diminuer de 50 X les performances motrices initiales ou de diminuer de 50% la curiosité des souris traitées par rapport à celle des témoins.
# (§4) Les expérimentations comportementales précédemment décrites ont été appliquées à des animaux recevant SCS 35 et SCS 289 aux doses de 10 et 25 mg/kg.
# [2] = Spontaneous motor activity; assay type: in vivo, souris; settings: mouse, in vivo, po; dose diminishing initial performance by 50 %; read-out: DA50 motricité
# Source text: as §1, §2, §3, §4
# [3] = tested on: crises épileptiformes consécutives à l'électrochoc; test: Maximal electroshock producing epileptiform 'grand mal' seizures (1st and 2nd electroshock); assay type: in vivo, lapin
# Source text: (§5) Propriétés anticonvulsivantes : • On a effectué, pour déterminer ces propriétés anticonvulsivantes, des expérimentations sur le SCS 289 en procédant à des essais de protection : • - chez le lapin soumis à une transélectrification cranienne génératrice de crises épileptiformes de type "grand mal" ou recevant une infusion veineuse de pentétrazol provoquant l'apparition de myoclonies palpébrales; • - chez la souris recevant, par voie sous-cutanée des doses croissantes de pentétrazol entraînant convulsions et mort ou soumise à une transélectrification transcranienne à basse fréquence génératrice de crises psychomotrices.
# Ne considérant comme significative, que la protection complète, les traitements pratiqués une heure avant le second électrochoc ont conféré les protection suivantes (sur groupes de dix lapins) :
# Si, par ailleurs, on considère la protection contre les crises toniques (hyperextension des pattes postérieures), il apparaît également une synergie particulièrement aux doses associées de 200 mg/kg de produits.
# [4] = tested on: crises pentétrazoliques; test: Convulsant and lethal effects of subcutaneous pentetrazol (125 mg/kg); assay type: in vivo, souris
# Source text: as §5
# Pour déceler une synergie d'action antagoniste vis-à-vis des effets convulsivants et létaux du pentétrazol injecté par voie sous-cutanée chez la souris à la dose de 125 mg/kg, on a déterminé avec plus de précision la DE50 du SCS 289 et on a recherché si l'association avec le SCS 35 apportait un surcroit appréciable d'activité.
# On n'a retenu comme significative que la protection à l'égard des effets létaux observés sur 24 heures.
# [5] = Acute toxicity by the digestive route, lethality after one week of observation; assay type: in vivo, souris; settings: mouse, in vivo, po; for mortality at 168 h: read-out: Pourcentage de létalité Souris
# Method: (§6) Des doses croissantes de produit (SCS 289) ont été administrées, par voie digestive, sous forme de suspensions gommeuses, sous le volume de 0,50 ml/20 g de poids corporel chez la souris et 0,50 ml/100 g de poids corporel chez le rat (de 500 à 4000 mg/kg avec des intervalles de 500 mg/kg).
# (§7) Les animaux ont été maintenus en observation pendant une semaine, tout d'abord dans le laboratoire (avec un chauffage d'appoint) jusqu'au réveil des animaux endormis, puis dans l'unité animale conditionnée et climatisée.
# (§8) Le taux de mortalité relevé dans chaque lot de rats et de souris au terme de la semaine d'observation a été le suivant :
# (§9) Les valeurs des DL50, calculées par la méthode de Miller et Tainter sont respectivement de : • - 2300 ± 102 m^g/k^g chez la souris; • - 2050 + 220 mg/kg chez le rat.
# [6] = tested on: souris; test: as above; assay type: in vivo; settings: souris, voie digestive, méthode de Miller et Tainter; 10080 min
# Method: as §6, §7, §8, §9
# [7] = tested on: myoclonies palpébrales provoquées par l'infusion veineuse de pentétrazol; test: Intravenous pentetrazol infusion producing palpebral myoclonus (threshold seizures); assay type: in vivo, lapin; settings: for Dose moyenne de pentétrazol: controls 23,0; for Quantité de pentétrazol nécessaire à l'apparition des myoclonies palpébrales / Temps d'infusion veineuse nécessaire à l'apparition des myoclonies palpébrales: individual animals; for Temps d'infusion veineuse nécessaire à l'apparition des myoclonies palpébrales: comma separates minutes and seconds
# Source text: as §5
# Les résultats quant à la protection contre les crises pentétrazoliques liminaires génératrices de myaclonies palpébrales figurent dans les tableaux ci-après.
# L'administration préalable de SCS 289 retarde l'apparition des myoclonies palpébrales provoquées par l'infusion veineuse de pentétrazol.
# Une expérimentation similaire pratiquée en essais croisés a donné les résultats suivants pour divers anticonvulsivants de référence : […]
# [8] = Narcotic effect; settings: mouse, in vivo; souris; read-out: DE50 narcotique
# Method: En ce qui concerne la maniabilité, la comparaison des doses de SCS 289 exerçant, chez la souris, des effets létaux et anticonvulsivants permet de prévoir une marge thérapeutique assez confortable (dans le domaine du "petit mal") : • - DL50 = 2300 + 102 mg/kg; • - DE50 narcotique, comprise entre 1 et 2 g/kg; • - DE50 anticonvulsivante vis-à-vis du ^pentétrazol; • - DE50 anticonvulsivante vis-à-vis des crises psychomotrices.
# [9] = lapins ayant reçu 50 mg/kg de SCS 289
# [10] = lapins ayant reçu 100 mg/kg de SCS 289
smiles,measurement,setting,value
"CC(C)OC(=O)N(C(N)=O)c1ccccc1 [SCS 289, phényl-2 allophanate d'isopropyle]",Propriétés déficitaires motrices sur la motricité (pourcentage de diminution des scores),"[1]; 10 mg/kg voie digestive, one hour after treatment",0%
same,Propriétés déficitaires motrices sur la motricité (pourcentage de diminution des scores),[1]; 25 mg/kg,20%
same,Propriétés déficitaires motrices sur la motricité (pourcentage de diminution des scores),[1]; 50 mg/kg,25%
same,Propriétés déficitaires motrices sur la motricité (pourcentage de diminution des scores),[1]; 75 mg/kg,30%
same,Propriétés déficitaires motrices sur la motricité (pourcentage de diminution des scores),[1]; 100 mg/kg,50%
same,Propriétés déficitaires motrices sur la motricité (pourcentage de diminution des scores),[1]; 150 mg/kg,100%
same,Propriétés déficitaires motrices sur la motricité (pourcentage de diminution des scores),[1]; 200 mg/kg,100%
same,ED50 at 1 h,[2],120 mg/kg
same,% d'animaux protégés contre les seules crises toniques,"[3]; 100 mg/kg, hyperextension tonique des pattes postérieures",60%
same,% d'animaux protégés contre les seules crises toniques,[3]; 200 mg/kg,50%
same,protection contre la forme tonique des convulsions (animals out of ten),[3]; 200 mg/kg,cinq animaux sur dix
same,% d'animaux protégés complètement,"[3]; 200 mg/kg, one hour before second electroshock, groups of ten rabbits",20%
same,% de protection vis-à-vis de la létalité pentétrazolique,[4]; 10 mg/kg,20%
same,% de létalité en 24 h,"[4]; 10 mg/kg 1 h avant pentétrazol 125 mg/kg s.c., untreated 100",80%
same,% de protection vis-à-vis de la létalité pentétrazolique,[4]; 20 mg/kg,70%
same,% de létalité en 24 h,[4]; 20 mg/kg 1 h avant pentétrazol,30%
same,% de protection vis-à-vis de la létalité pentétrazolique,[4]; 30 mg/kg,100%
same,% de létalité en 24 h,[4]; 30 mg/kg 1 h avant pentétrazol,0%
same,% de protection vis-à-vis de la létalité pentétrazolique,[4]; 40 mg/kg,100%
same,% de létalité en 24 h,[4]; 40 mg/kg 1 h avant pentétrazol,0%
same,% de protection vis-à-vis de la létalité pentétrazolique,[4]; 50 mg/kg,100%
same,% de létalité en 24 h,[4]; 50 mg/kg 1 h avant pentétrazol,0%
same,ED50,"[4]; Mus musculus, sc, 24 h, souris, read-out: DE50 à l'égard des crises pentétrazoliques maximales et létales",15 mg/kg
same,DL50/DE50 /pentétrazol,"[4]; index thérapeutique absolu, souris",153
same,mortality at 168 h,[5]; 500 mg/kg voie digestive,0%
same,mortality at 168 h,[5]; 1000 mg/kg voie digestive,0%
same,mortality at 168 h,[5]; 1500 mg/kg voie digestive,0%
same,mortality at 168 h,[5]; 2000 mg/kg voie digestive,20%
same,mortality at 168 h,[5]; 2500 mg/kg voie digestive,40%
same,mortality at 168 h,[5]; 3000 mg/kg voie digestive,100%
same,mortality at 168 h,[5]; 3500 mg/kg voie digestive,100%
same,mortality at 168 h,[5]; 4000 mg/kg voie digestive,100%
same,LD50 at 168 h,"[5]; souris, voie digestive, méthode de Miller et Tainter, read-out: DL50",2300 ± 102 mg/kg
same,DL50,[6],2300 + 102 mg/kg
same,Elévation du seuil myoclonique,[7]; 50 mg/kg,"61,7%"
same,Dose moyenne de pentétrazol,[7]; 50 mg/kg,"37,2 mg/kg"
same,Elévation du seuil myoclonique,[7]; 100 mg/kg,113%
same,Dose moyenne de pentétrazol,[7]; 100 mg/kg,"49,2 mg/kg"
same,Quantité de pentétrazol nécessaire à l'apparition des myoclonies palpébrales,[7]; [9],"40,78 mg/kg and 42,58 mg/kg and 51,43 mg/kg and 33,33 mg/kg and 43,68 mg/kg and 32,44 mg/kg and 22,22 mg/kg and 40 mg/kg and 45,15 mg/kg and 20 mg/kg"
same,Temps d'infusion veineuse nécessaire à l'apparition des myoclonies palpébrales,[7]; [9],"26 minutes et secondes and 28 minutes et secondes (2×) and 36 minutes et secondes and 21,15 minutes et secondes and 31,40 minutes et secondes and 22,20 minutes et secondes and 15 minutes et secondes and 28,40 minutes et secondes and 16 minutes et secondes"
same,Quantité de pentétrazol nécessaire à l'apparition des myoclonies palpébrales,[7]; [10],"51,85 mg/kg and 51,81 mg/kg and 46,28 mg/kg and 64 mg/kg and > 68,44 mg/kg and 45,15 mg/kg and 56,67 mg/kg and 33,84 mg/kg and 37,71 mg/kg and 36,41 mg/kg"
same,Temps d'infusion veineuse nécessaire à l'apparition des myoclonies palpébrales,[7]; [10],"35 minutes et secondes and 37 minutes et secondes and 28 minutes et secondes and 32 minutes et secondes and > 45 minutes et secondes and 28,40 minutes et secondes and 34 minutes et secondes and 33 minutes et secondes (2×) and 35,30 minutes et secondes"
same,activité vis-à-vis des myoclonies palpébrales du lapin par rapport au valproate de sodium,"[7]; relative activity, lapin",dix fois plus actif
same,activité vis-à-vis des myoclonies palpébrales du lapin par rapport à la phénacétamide,"[7]; relative activity, lapin",deux fois plus actif
same,ED50,[8],1000 to 2000 mg/kg
